Results published in patent US10407467B2, “Polymyxin derivatives and their use in combination therapy together with different antibiotics” (priority 2013, dated 2019).
Read-outs that look alike come from different tables or passages of the source.

Tests used:
Assay in all cases: MIC, sole activity (no second agent)
Format in all cases: cell-based
[1] = test system: Escherichia coli; conditions: for MIC: Escherichia coli; for MIC E. coli ATCC25922 / MIC E. coli NCTC 13441: Table 6A, no second agent, different supplier of Cation-adjusted MHB
Experimental: (§1) To evaluate the potency and spectrum of the compounds both alone and in combination with another agent, susceptibility testing was performed against up to four strains of each of the four Gram negative pathogens, Escherichia coli, Pseudomonas aeruginosa, Klebsiella pneumoniae and Acinetobacter baumannii.
(§2) The inoculum was prepared by making a direct suspension of isolated colonies (selected from an 18-24 hour Mueller-Hinton agar plate) adjusted to the 0.5 McFarland standard.
(§3) The assays were performed in duplicate.
(§4) In cases where the duplicate values varied by less than 2-fold, the lower of the two values is reported. If a variation of greater than 2-fold was observed, the assay was considered non-valid. Several of the compounds were subjected to multiple tests, and where this is the case, the MIC reflects the modal value obtained.
(§5) MICs were determined as described herein, except that a different supplier of Cation-adjusted MHB was used. […] Values are reported relative to Polymyxin B.

[2] = test system: Acinetobacter baumannii; conditions: for MIC: Acinetobacter baumannii, NCTC13424; for MIC A. baumannii ATCC BAA-747 / MIC A. baumannii NCTC 13424: Table 6A, no second agent, different supplier of Cation-adjusted MHB
Experimental: as §1, §2, §3, §4, §5

[3] = test system: Klebsiella pneumoniae; conditions: for MIC: Klebsiella pneumoniae; for MIC K. pneumoniae ATCC 4352 / MIC K. pneumoniae ATCC BAA-2146: Table 6A, no second agent, different supplier of Cation-adjusted MHB
Experimental: as §1, §2, §3, §4, §5

[4] = test system: Pseudomonas aeruginosa; conditions: for MIC: Pseudomonas aeruginosa; for MIC P. aeruginosa ATCC 27853 / MIC P. aeruginosa CCUG 59347: Table 6A, no second agent, different supplier of Cation-adjusted MHB
Experimental: as §1, §2, §3, §4, §5

Molecule: O=C(O)c1cn(C2CC2)c2cc(N3CCNCC3)c(F)cc2c1=O [Ciprofloxacin, reference compound]
- MIC ([1]; ATCC25922, Second Agent none (Table 7B), read-out: MIC E. coli ATCC25922): ≤ 0.06 µg/mL
- MIC ([1]; CCUG59342, Second Agent none (Table 7B), read-out: MIC E. coli CCUG 59342): 16 µg/mL
- MIC ([1]; NCTC9001, Second Agent none (Table 7B), read-out: MIC E. coli (NCTC9001)): ≤ 0.06 µg/mL
- MIC ([2]; Second Agent none (Table 7B, by row order), read-out: MIC A. baumannii (NCTC 13424)): 1 µg/mL
- MIC ([3]; ATCC4352, Second Agent none (Table 7B, by row order), read-out: MIC K. pneumoniae (ATCC4352)): ≤ 0.06 µg/mL
- MIC ([3]; ATCCBAA1706, Second Agent none (Table 7B, by row order), read-out: MIC K. pneumoniae ATCC BAA-1706): 4 µg/mL
- MIC ([3]; CCUG59348, Second Agent none (Table 7B), read-out: MIC K. pneumoniae CCUG 59348): > 32 µg/mL
- MIC ([3]; NCTC13442, Second Agent none (Table 7B), read-out: MIC K. pneumoniae NCTC 13442): 2 µg/mL
- MIC ([4]; ATCC27853, Second Agent none (Table 7B, by row order), read-out: MIC P. aeruginosa ATCC 27853): 0.125 µg/mL
- MIC ([4]; CCUG59626, Second Agent none (Table 7B, by row order), read-out: MIC P. aeruginosa CCUG 59626): 0.5 µg/mL

Molecule: CO[C@@H]1[C@@H](OC(N)=O)[C@@H](O)[C@H](Oc2ccc3c(O)c(NC(=O)c4ccc(O)c(CC=C(C)C)c4)c(=O)oc3c2C)OC1(C)C [Novobiocin, reference compound]
- MIC ([1]; NCTC13441, Table 7H, E. coli NCTC 13441, second agent none, read-out: MIC E. coli NCTC 13441): > 32 µg/mL
- MIC ([1]; Table 7H, E. coli ATCC25922, second agent none, read-out: MIC E. coli ATCC25922): 16 µg/mL
- MIC ([2]; Table 7H, A. baumannii NCTC 13424, second agent none): 4 µg/mL
- MIC ([3]; CCUG59349, Table 7H, K. pneumoniae CCUG 59349, second agent none, read-out: MIC K. pneumoniae CCUG 59349): > 32 µg/mL
- MIC ([3]; Table 7H, K. pneumoniae ATCC4352, second agent none, read-out: MIC K. pneumoniae ATCC4352): 0.25 µg/mL
- MIC ([4]; ATCC10145, Table 7H, P. aeruginosa ATCC 10145, second agent none, read-out: MIC P. aeruginosa ATCC 10145): > 32 µg/mL

Molecule: (1- aminomethylcyclohexane) carbonyl polymyxin B nonapeptide [Example A34]
- MIC E. coli ATCC25922 [1]: 8 micrograms/mL
- MIC E. coli NCTC 13441 [1]: >8 micrograms/mL
- MIC A. baumannii ATCC BAA-747 [2]: >8 micrograms/mL
- MIC A. baumannii NCTC 13424 [2]: >8 micrograms/mL
- MIC K. pneumoniae ATCC 4352 [3]: 8 micrograms/mL
- MIC K. pneumoniae ATCC BAA-2146 [3]: >8 micrograms/mL
- MIC P. aeruginosa ATCC 27853 [4]: 0.5 micrograms/mL
- MIC P. aeruginosa CCUG 59347 [4]: 2 micrograms/mL

Molecule: (2S)-2-Amino-3- cyclohexanepropanoyl polymyxin B nonapeptide [Example A16]
- MIC E. coli ATCC25922 [1]: >8 micrograms/mL
- MIC E. coli NCTC 13441 [1]: >8 micrograms/mL
- MIC A. baumannii ATCC BAA-747 [2]: >8 micrograms/mL
- MIC A. baumannii NCTC 13424 [2]: >8 micrograms/mL
- MIC K. pneumoniae ATCC 4352 [3]: >8 micrograms/mL
- MIC K. pneumoniae ATCC BAA-2146 [3]: >8 micrograms/mL
- MIC P. aeruginosa ATCC 27853 [4]: 1 micrograms/mL
- MIC P. aeruginosa CCUG 59347 [4]: >8 micrograms/mL

Molecule: (2S)-Morpholine-2-carbonyl polymyxin B nonapeptide [Example A40]
- MIC E. coli ATCC25922 [1]: 8 micrograms/mL
- MIC E. coli NCTC 13441 [1]: 4 micrograms/mL
- MIC A. baumannii ATCC BAA-747 [2]: >8 micrograms/mL
- MIC A. baumannii NCTC 13424 [2]: >8 micrograms/mL
- MIC K. pneumoniae ATCC 4352 [3]: 4 micrograms/mL
- MIC K. pneumoniae ATCC BAA-2146 [3]: 8 micrograms/mL
- MIC P. aeruginosa ATCC 27853 [4]: 2 micrograms/mL
- MIC P. aeruginosa CCUG 59347 [4]: 4 micrograms/mL

Molecule: (2S)-piperazine-2-carbonyl polymyxin B nonapeptide [Example A49]
- MIC E. coli ATCC25922 [1]: 4 micrograms/mL
- MIC E. coli NCTC 13441 [1]: 4 micrograms/mL
- MIC A. baumannii ATCC BAA-747 [2]: >8 micrograms/mL
- MIC A. baumannii NCTC 13424 [2]: >8 micrograms/mL
- MIC K. pneumoniae ATCC 4352 [3]: 2 micrograms/mL
- MIC K. pneumoniae ATCC BAA-2146 [3]: >8 micrograms/mL
- MIC P. aeruginosa ATCC 27853 [4]: 2 micrograms/mL
- MIC P. aeruginosa CCUG 59347 [4]: 4 micrograms/mL

Molecule: (2S,3S)-3-Amino-2-hydroxy- 5-methylhexanoyl polymyxin B decapeptide [Example A18]
- MIC E. coli ATCC25922 [1]: 8 micrograms/mL
- MIC E. coli NCTC 13441 [1]: 4 micrograms/mL
- MIC A. baumannii ATCC BAA-747 [2]: 4 micrograms/mL
- MIC A. baumannii NCTC 13424 [2]: 8 micrograms/mL
- MIC K. pneumoniae ATCC 4352 [3]: 4 micrograms/mL
- MIC K. pneumoniae ATCC BAA-2146 [3]: 4 micrograms/mL
- MIC P. aeruginosa ATCC 27853 [4]: 0.5 micrograms/mL
- MIC P. aeruginosa CCUG 59347 [4]: 1 micrograms/mL

Molecule: (2S,4R)-4-amino-1-(3-amino- 3-cyclohexylpropanoyl)pyrrolidine- 2-carbonyl polymyxin B nonapeptide [Example A29]
- MIC E. coli ATCC25922 [1]: >8 micrograms/mL
- MIC E. coli NCTC 13441 [1]: >8 micrograms/mL
- MIC A. baumannii ATCC BAA-747 [2]: 2 micrograms/mL
- MIC A. baumannii NCTC 13424 [2]: 4 micrograms/mL
- MIC K. pneumoniae ATCC 4352 [3]: >8 micrograms/mL
- MIC K. pneumoniae ATCC BAA-2146 [3]: >8 micrograms/mL
- MIC P. aeruginosa ATCC 27853 [4]: 0.25 micrograms/mL
- MIC P. aeruginosa CCUG 59347 [4]: >8 micrograms/mL

Molecule: (R)-4-isobutylpiperazine-2- carbonyl polymyxin B nonapeptide [Example A46]
- MIC E. coli ATCC25922 [1]: 2 micrograms/mL
- MIC E. coli NCTC 13441 [1]: 2 micrograms/mL
- MIC A. baumannii ATCC BAA-747 [2]: 8 micrograms/mL
- MIC A. baumannii NCTC 13424 [2]: 2 micrograms/mL
- MIC K. pneumoniae ATCC 4352 [3]: 2 micrograms/mL
- MIC K. pneumoniae ATCC BAA-2146 [3]: 2 micrograms/mL
- MIC P. aeruginosa ATCC 27853 [4]: 1 micrograms/mL
- MIC P. aeruginosa CCUG 59347 [4]: 2 micrograms/mL

Molecule: (R)-Piperidine-3-carbonyl polymyxin B nonapeptide [Example A24]
- MIC E. coli ATCC25922 [1]: >8 micrograms/mL
- MIC E. coli NCTC 13441 [1]: >8 micrograms/mL
- MIC A. baumannii ATCC BAA-747 [2]: >8 micrograms/mL
- MIC A. baumannii NCTC 13424 [2]: >8 micrograms/mL
- MIC K. pneumoniae ATCC 4352 [3]: 8 micrograms/mL
- MIC K. pneumoniae ATCC BAA-2146 [3]: >8 micrograms/mL
- MIC P. aeruginosa ATCC 27853 [4]: 1 micrograms/mL
- MIC P. aeruginosa CCUG 59347 [4]: 2 micrograms/mL

Molecule: (S)-1-(2-methylpropyl)- piperidine-3-carbonyl polymyxin B nonapeptide [Example A48]
- MIC E. coli ATCC25922 [1]: 1 micrograms/mL
- MIC E. coli NCTC 13441 [1]: 1 micrograms/mL
- MIC A. baumannii ATCC BAA-747 [2]: 4 micrograms/mL
- MIC A. baumannii NCTC 13424 [2]: 2 micrograms/mL
- MIC K. pneumoniae ATCC 4352 [3]: 0.5 micrograms/mL
- MIC K. pneumoniae ATCC BAA-2146 [3]: 2 micrograms/mL
- MIC P. aeruginosa ATCC 27853 [4]: 1 micrograms/mL
- MIC P. aeruginosa CCUG 59347 [4]: 4 micrograms/mL

Molecule: (S)-1-(3-methylbutanoyl) piperazine-2-carbonyl polymyxin B nonapeptide [Example A47]
- MIC E. coli ATCC25922 [1]: >8 micrograms/mL
- MIC E. coli NCTC 13441 [1]: 8 micrograms/mL
- MIC A. baumannii ATCC BAA-747 [2]: 8 micrograms/mL
- MIC A. baumannii NCTC 13424 [2]: 4 micrograms/mL
- MIC K. pneumoniae ATCC 4352 [3]: >8 micrograms/mL
- MIC K. pneumoniae ATCC BAA-2146 [3]: 8 micrograms/mL
- MIC P. aeruginosa ATCC 27853 [4]: 2 micrograms/mL
- MIC P. aeruginosa CCUG 59347 [4]: 8 micrograms/mL

Molecule: Cis-4-Octyl piperidine-2- carbonyl polymyxin B nonapeptide. Isomer 1 [Example A43]
- MIC E. coli ATCC25922 [1]: 8 micrograms/mL
- MIC E. coli NCTC 13441 [1]: >8 micrograms/mL
- MIC A. baumannii ATCC BAA-747 [2]: >8 micrograms/mL
- MIC A. baumannii NCTC 13424 [2]: >8 micrograms/mL
- MIC K. pneumoniae ATCC 4352 [3]: >8 micrograms/mL
- MIC P. aeruginosa ATCC 27853 [4]: 4 micrograms/mL
- MIC P. aeruginosa CCUG 59347 [4]: 8 micrograms/mL

Molecule: Cis-4-Octyl piperidine-2- carbonyl polymyxin B nonapeptide. Isomer 2 [Example A44]
- MIC E. coli ATCC25922 [1]: 2 micrograms/mL
- MIC E. coli NCTC 13441 [1]: 2 micrograms/mL
- MIC A. baumannii ATCC BAA-747 [2]: 2 micrograms/mL
- MIC A. baumannii NCTC 13424 [2]: 4 micrograms/mL
- MIC K. pneumoniae ATCC 4352 [3]: 2 micrograms/mL
- MIC P. aeruginosa ATCC 27853 [4]: 1 micrograms/mL
- MIC P. aeruginosa CCUG 59347 [4]: 2 micrograms/mL

Molecule: D-Leu-polymyxin B nonapeptide [Example A42]
- MIC E. coli ATCC25922 [1]: 2 micrograms/mL
- MIC E. coli NCTC 13441 [1]: 1 micrograms/mL
- MIC A. baumannii ATCC BAA-747 [2]: 4 micrograms/mL
- MIC A. baumannii NCTC 13424 [2]: 4 micrograms/mL
- MIC K. pneumoniae ATCC 4352 [3]: 2 micrograms/mL
- MIC K. pneumoniae ATCC BAA-2146 [3]: 1 micrograms/mL
- MIC P. aeruginosa ATCC 27853 [4]: 0.5 micrograms/mL
- MIC P. aeruginosa CCUG 59347 [4]: 2 micrograms/mL

Molecule: D-Phe polymyxin B nonapeptide [Example A35]
- MIC E. coli ATCC25922 [1]: 1 micrograms/mL
- MIC E. coli NCTC 13441 [1]: 2 micrograms/mL
- MIC A. baumannii ATCC BAA-747 [2]: 8 micrograms/mL
- MIC A. baumannii NCTC 13424 [2]: 8 micrograms/mL
- MIC K. pneumoniae ATCC 4352 [3]: 2 micrograms/mL
- MIC K. pneumoniae ATCC BAA-2146 [3]: 2 micrograms/mL
- MIC P. aeruginosa ATCC 27853 [4]: 0.25 micrograms/mL
- MIC P. aeruginosa CCUG 59347 [4]: 1 micrograms/mL
